Laboratory results: patent US6573084B1, “Process for the deacylation of cyclic lipopeptides” (Fujisawa Pharmaceutical Co., Ltd., priority 1996, dated 2003)
Read-outs that look alike come from different tables or passages of the source. Starred links: 1 amine or outer side, 2 acyl side, 3 side chain; linkers in the order of their positions; H or OH if unused. Positions of bridges follow the written chain, without caps; N, C: chain ends. Non-standard residues stand in square brackets, D forms with d. Residues, ends and D or L forms follow the SMILES beside them. ξ: configuration not given here. *: point of attachment. X1 = O=C(C(N[*:1])C(O)C(O)c1ccc(O)c(OS(=O)(=O)O)c1)[*:2]; ξOrn(4,5-diOH) = O=C(C(CC(O)C(O)N[*:3])N[*:1])[*:2]; X4 = CCCCCCCCCCCCCC(CC(=O)[*:1])O[*:2]; ξPro(3ξ-OH,4ξ-Me) = CC1CNC(C(=O)O)C1O; X2 = NC(=O)CC(O)C(N[*:1])C(=O)[*:2]; Palmitoyl = CCCCCCCCCCCCCCCC(=O)*; X3 = O=C(C1C(O)CCN1[*:1])[*:2]; Hyp = O=C(O)[CH]1C[CH](O)CN1; Orn = NCCC[CH](N)C(=O)O

Key:
[1] = tested on: acylase produced by Streptomyces sp. No. 6907; assay: Deacylation of cyclic lipopeptide substrates by the acylase of Streptomyces sp. No. 6907 (HPLC, Lineweaver-Burk, substrate specificity); format: biochemical; details: for Vmax / Km: substrate of the acylase, fermentation broth of Streptomyces sp. No. 6907; for Km: read-out: Km value determined by the Lineweaver-Burk method
Protocol: To 700 μl of the fermentation broth of Streptomyces sp. No. 6907 obtained in Example 1-3 was added 100 μl of an aqueous solution of Substance FR901379 (100 mg/ml) (10 mg as Substance FR901379; 8.35 μmol) together with 100 μl of methanol and 100 μl of buffer (0.5 M potassium dihydrogen phosphate-disodium hydrogen phosphate buffer; pH 6.0), and the reaction was carried out at 30° C. for 30 minutes. The reaction was then stopped with 4% acetic acid and following addition of 2 ml of methanol, the mixture was filtered through a membrane filter (0.45 μm) to remove the macromolecular protein and other fraction and subjected to HPLC and the acylase activity of the skeletal substance FR179642 produced was monitored and assayed at 210 nm.
Using a variable wavelength UV detector (Shimadzu SPD-10A), a pump (Shimadzu LC-10AD) and an integrator (Shimadzu C-R6A) as the instrumentation, LiChrospher 100RP-18(e) (250 mm×4 mm i.d., particle diameter 5 μm(E.Merck)) as the stationary phase, and 3% acetonitrile/0.5% ammonium dihydrogen phosphate as the mobile phase, Substance FR179642 was eluted at a flow rate of 1 ml/min. The retention time of Substance FR179642 was about 6.3 minutes. The yield of Substance FR179642 as calculated from HPLC data was 560 μg (0.60 μmol).
(§1) To 100 μl of the fermentation broth of Streptomyces sp. No. 6907 obtained in Example 1-3 was added 100 μl of a dimethyl sulfoxide solution of Aculeacin A (100 mg/ml) (10 mg as Aculeacin A; 9.65 μmol) together with 500 μl of 1.2 M KCl-containing 500 mM potassium dihydrogen phosphate-disodium hydrogen phosphate buffer (pH 7.0) and 300 μl of water, and the reaction was carried out at 40° C. for 15 minutes. The reaction was then stopped with 1 ml of 4% acetic acid and following addition of 2 ml of methanol, the mixture was filtered through a membrane filter (0.45 μm) to remove the macromolecular protein and other fraction and subjected to HPLC and the acylase activity of the nuclear substance Aculeacin A produced was monitored at 210 nm and determined. Using a variable wavelength UV detector (Shimadzu SPD-10A), a pump (Shimadzu LC-10AD) and an integrator (Shimadzu C-R6A) as the instrumentation, LiChrospher 100RP-18(e) (250 mm×4 mm i.d., particle diameter 5 μm (E.Merck)) as the stationary phase, and 4% acetonitrile/1% ammonium dihydrogen phosphate as the mobile phase, nuclear substance Aculeacin A was eluted at a flow rate of 1 ml/min. The retention time of nuclear substance Aculeacin A was about 8.7 minutes. The yield of nuclear substance Aculeacin A as calculated from HPLC data was 370 μg (0.47 μmol).
as §1, with “Echinocandin B” for “Aculeacin A”, “Echinocandin B; 9.43” for “Aculeacin A; 9.65”, “monitored and assayed” for “monitored”, “nm.” for “nm and determined.”, “90” for “370”, “(0.11” for “(0.47”
To 2.0 ml of the fermentation broth of Streptomyces sp. […]

[2] = target: T1, Actinoplanes utahensis-derived acylase (Actinoplanes utahensis, UniProt P29958); assay: Deacylation of Substance FR901469 by Actinoplanes utahensis acylase (HPLC of Substance FR181131); format: biochemical, Actinoplanes utahensis IF013244; details: produces Substance FR181131
T1 construct: To 20 ml of a fermentation broth of Actinoplanes utahensis IF013244; endogenous in cells; host or cells: Actinoplanes utahensis IF013244 (so in the source), whole fermentation broth
T1 sequence (P29958 230-786 limits assumed): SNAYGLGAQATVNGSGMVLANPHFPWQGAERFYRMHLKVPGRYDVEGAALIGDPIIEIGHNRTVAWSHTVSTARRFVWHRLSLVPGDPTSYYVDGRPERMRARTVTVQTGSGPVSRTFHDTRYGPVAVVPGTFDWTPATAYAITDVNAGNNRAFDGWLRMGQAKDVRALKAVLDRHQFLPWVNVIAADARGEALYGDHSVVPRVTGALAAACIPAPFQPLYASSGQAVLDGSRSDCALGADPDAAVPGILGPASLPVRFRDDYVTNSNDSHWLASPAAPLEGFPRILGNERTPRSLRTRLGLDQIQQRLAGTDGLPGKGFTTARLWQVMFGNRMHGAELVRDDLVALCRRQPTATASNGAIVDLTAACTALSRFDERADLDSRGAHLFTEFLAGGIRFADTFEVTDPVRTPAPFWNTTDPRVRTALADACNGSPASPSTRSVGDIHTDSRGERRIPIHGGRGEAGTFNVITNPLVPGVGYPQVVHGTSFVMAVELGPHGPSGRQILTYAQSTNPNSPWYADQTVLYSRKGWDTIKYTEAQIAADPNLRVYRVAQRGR
T1 sequence (P29958 35-214 limits assumed): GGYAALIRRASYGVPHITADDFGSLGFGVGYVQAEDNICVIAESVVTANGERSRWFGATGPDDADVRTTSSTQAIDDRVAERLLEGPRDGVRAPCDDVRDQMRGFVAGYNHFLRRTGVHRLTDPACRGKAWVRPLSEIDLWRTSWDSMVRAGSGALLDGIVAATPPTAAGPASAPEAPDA
Protocol: To 20 ml of a fermentation broth of Actinoplanes utahensis IF013244 as prepared by the procedure described in J. Antibiotics, Vol. 41, p. 1085-1092 ('88) was added 1 ml of an aqueous solution of Substance FR901469 (200 mg/ml) (0.2 g as Substance FR901469; 130 μmol) together with 2.9 g of disodium hydrogen phosphate and 60 ml of water, and the reaction was carried out at 60° C. for 24 hours. After completion of the reaction, the reaction mixture was filtered through a membrane filter (0.45 μm) to remove the high molecular protein and other fraction and purified by HPLC under monitoring for Substance FR181131 at 210 nm and the acylase activity was determined. Using a variable wavelength UV detector (Shimadzu SPD-10A), a pump (Shimadzu LC-10AD) and an integrator (Shimadzu C-R6A) as the instrumentation, YMC AM303 (250 mm×4 mm i.d., particle diameter 5 μm) as the stationary phase, and 12.5% acetonitrile/0.5% ammonium dihydrogen phosphate as the mobile phase, Substance FR181131 was eluted at a flow rate of 1 ml/min. The retention time of Substance FR181131 was about 7.3 minutes. The yield of Substance FR181131 as calculated from HPLC data was 80 mg (68 μmol).

CCCCCCCCCCCCCCCC(=O)NC1CC(O)C(O)NC(=O)C2C(O)C(C)CN2C(=O)C(C(O)CC(N)=O)NC(=O)C(C(O)C(O)c2ccc(O)c(OS(=O)(=O)O)c2)NC(=O)C2CC(O)CN2C(=O)C(C(C)O)NC1=O (stereo not drawn) [Substance FR901379] (Palmitoyl-[ξOrn(4,5-diOH)]T[Hyp][X1][X2][ξPro(3ξ-OH,4ξ-Me)]; lactam 1-C; configuration not given here)
Substrate specificity (catalytic action of the acylase on the substrate) [1]: acts as a catalyst | Vmax [1]: 14.3 U/mg-protein | Km [1]: 257 µM

CCCCCCCCCCCCCC1CC(=O)NC(C(C)O)C(=O)NC(C)C(=O)NC(Cc2ccc(O)cc2)C(=O)NC(C(C)C)C(=O)N2CC(O)CC2C(=O)NC(C(C)O)C(=O)NC(C(C)O)C(=O)N2CCC(O)C2C(=O)NC(C(O)CC(N)=O)C(=O)NCC(=O)NC(C(C)O)C(=O)NC(CCCN)C(=O)O1 (stereo not drawn) [Substance FR901469] (TAYV[Hyp]TT[X3][X2]GT[Orn]; linker N-C via X4; configuration not given here)
Substrate specificity (catalytic action of the acylase on the substrate) [1]: exerts no catalytic action | Substrate specificity (catalytic action of the acylase on the substrate) ([1]; listed as FR901469): does not act upon | Substrate specificity (catalytic action of the acylase on the substrate) [2]: exerts a catalytic action

Echinocandin B
Substrate specificity (catalytic action of the acylase on the substrate) [1]: acts as a catalyst | Vmax [1]: 7.85 U/mg-protein | Km [1]: 146 µM

Aculeacin A
Substrate specificity (catalytic action of the acylase on the substrate) [1]: acts as a catalyst | Vmax [1]: 16.8 U/mg-protein | Km [1]: 279 µM
